{"source": "patent US8183272B2", "about": "“Indanyl compounds” (Daiichi Sankyo Company, Limited, priority 2008, dated 2012)", "key": {"[1]": {"biological_target": "T1, human calcium-sensing receptor (CaSR) (Homo sapiens, UniProt P41180)", "T1 construct": "expressed in transfected cells; host or cells: CHO cells (CHO/hCaSR)", "T1 sequence (P41180 20-1078)": "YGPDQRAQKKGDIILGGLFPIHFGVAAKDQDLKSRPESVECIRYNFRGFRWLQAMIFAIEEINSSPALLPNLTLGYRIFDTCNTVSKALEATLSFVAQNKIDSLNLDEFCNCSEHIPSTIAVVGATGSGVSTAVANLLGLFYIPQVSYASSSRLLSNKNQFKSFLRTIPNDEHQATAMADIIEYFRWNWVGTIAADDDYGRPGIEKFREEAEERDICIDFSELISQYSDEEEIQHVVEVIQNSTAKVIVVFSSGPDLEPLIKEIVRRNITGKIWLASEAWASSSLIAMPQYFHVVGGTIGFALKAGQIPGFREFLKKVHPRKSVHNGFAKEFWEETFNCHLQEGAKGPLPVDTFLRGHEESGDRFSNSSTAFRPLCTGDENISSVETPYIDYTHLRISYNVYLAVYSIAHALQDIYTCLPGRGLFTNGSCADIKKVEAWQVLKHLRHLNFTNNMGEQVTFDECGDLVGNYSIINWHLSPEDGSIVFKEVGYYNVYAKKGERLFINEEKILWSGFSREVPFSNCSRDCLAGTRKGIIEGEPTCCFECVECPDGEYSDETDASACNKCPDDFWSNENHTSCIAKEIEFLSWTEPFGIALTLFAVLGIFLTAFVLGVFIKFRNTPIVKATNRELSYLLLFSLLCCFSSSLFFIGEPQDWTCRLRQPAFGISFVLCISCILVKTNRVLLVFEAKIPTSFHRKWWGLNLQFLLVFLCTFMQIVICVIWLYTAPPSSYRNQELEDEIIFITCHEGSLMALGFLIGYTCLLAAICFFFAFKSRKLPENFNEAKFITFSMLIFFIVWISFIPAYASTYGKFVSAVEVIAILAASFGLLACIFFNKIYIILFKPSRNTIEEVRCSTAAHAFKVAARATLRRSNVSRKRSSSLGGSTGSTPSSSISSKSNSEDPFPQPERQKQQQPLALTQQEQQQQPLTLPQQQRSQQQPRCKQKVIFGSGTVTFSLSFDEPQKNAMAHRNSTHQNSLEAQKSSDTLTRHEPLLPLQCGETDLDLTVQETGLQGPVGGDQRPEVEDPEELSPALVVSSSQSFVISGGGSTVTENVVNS", "assay": "Inhibitory activity on calcium-sensing receptor (CaSR) using intracellular calcium increase as an indicator (FLIPR, CHO/hCaSR)", "type": "cell-based", "conditions": "CHO/hCaSR cells; intracellular Ca increase induced by CaCl2; test compound 1.05 to 10,000 nM", "description": "Evaluation of inhibitory activity on calcium-sensing receptor (CaSR) using intracellular calcium increase as an indicator\nThe preparation which is prepared by adding CHO/hCaSR to F12 medium (manufactured by Invitrogen) containing 10% fetal bovine serum to have 2×10^5 cells/mL was applied to a 384-well in an amount of 50 μL/well, and then incubated overnight in a CO2 incubator. The culture supernatant was completely removed, the assay buffer (20 mM HEPES, HBSS (Ca and Mg free) containing 2.5 mM probenecid, pH 7.4) containing Calcium 3 (manufactured by Molecular Devices), i.e., a fluorescent intracellular calcium indicator, was added thereto in an amount of 25 μL/well, and the mixture was maintained for 1 hour in a CO2 incubator. Meanwhile, Calcium 3 was prepared according to the protocol enclosed in FLIPR Calcium 3 Assay Kit (manufactured by Molecular Devices). After maintaining it for 1 hour, a solution in which the test compound is prepared to have 2.1 to 20,000 nM (final concentration of 1.05 to 10,000 nM) by an assay buffer was added thereto in an amount of 25 μL/well, and maintained for 15 minutes in a CO2 incubator. Then, the CaCl2 solution prepared to have […] by using the assay buffer was added in an amount of 25 μL/well, and the resulting intracellular Ca increase (i.e., fluorescence intensity) was measured over time using a fluorescence imaging plate reader (FLIPR, manufactured by Molecular Devices). From the data obtained, the difference between the fluorescence intensity before the addition of CaCl2 solution and the maximum fluorescence intensity after the addition of CaCl2 solution was calculated, and the 50% inhibition concentration (IC50) of the test compound was obtained."}, "[2]": {"test_system": "PTH secretion", "assay": "Evaluation of PTH secretion promoting activity in rat (blood serum PTH, ELISA)", "type": "in vivo", "conditions": "female F344 rat, oral 3 mg/5 mL/kg, Means ± S.D., n = 3; for Blood Serum PTH (1-84) Concentration, 0 minute: before administration", "description": "Evaluation of PTH Secretion Promoting Activity in Rat\nA 10 to 14-week old female F344 rat (Charles River Japan, Inc.) fasted overnight was anesthetized using ether, and blood serum before the administration was prepared by drawing blood from the jugular vein of the animal. Subsequently, the test compound was orally administered at a dose of 3 mg/5 mL/kg using a solvent (0.5% aqueous methyl cellulose solution containing 5% DMA). Blood was drawn from the jugular vein under ether anesthesia at 5, 15, 30, 60, 120, and 240 minutes after the administration of the test compound, and the blood serum was prepared. The blood serum PTH concentration was measured using rat Intact PTH ELISA kit (manufactured by Immutopics, Inc.)."}}}
{"smiles": "C[C@@H](OC[C@H](O)CNC1(CC2Cc3ccccc3C2)CC1)c1ccccc1CCC(=O)O", "note": "[Example 14, 3-{2-[(1R)-1-{[(2R)-3-{[1-(2,3-Dihydro-1H-inden-2-ylmethyl)cyclopropyl]amino}-2-hydroxypropyl]oxy}ethyl]phenyl}propanoic acid]", "values": [{"measurement": "IC50", "setting": "[1]", "result": "≤ 2510", "unit": "nM"}, {"measurement": "Blood Serum PTH (1-84) Concentration, After 5 minutes", "setting": "[2]", "result": "211.6 ± 28.4", "unit": "pg/mL"}, {"measurement": "Blood Serum PTH (1-84) Concentration, After 15 minutes", "setting": "[2]", "result": "471.7 ± 112.8", "unit": "pg/mL"}, {"measurement": "Blood Serum PTH (1-84) Concentration, After 30 minutes", "setting": "[2]", "result": "146.1 ± 45.2", "unit": "pg/mL"}, {"measurement": "Blood Serum PTH (1-84) Concentration, After 60 minutes", "setting": "[2]", "result": "78.9 ± 5.0", "unit": "pg/mL"}, {"measurement": "Blood Serum PTH (1-84) Concentration, After 120 minutes", "setting": "[2]", "result": "81.8 ± 4.9", "unit": "pg/mL"}, {"measurement": "Blood Serum PTH (1-84) Concentration, After 240 minutes", "setting": "[2]", "result": "94.3 ± 15.7", "unit": "pg/mL"}, {"measurement": "Blood Serum PTH (1-84) Concentration, 0 minute", "setting": "[2]", "result": "62.8 ± 11.4", "unit": "pg/mL"}]}
{"smiles": "Cc1cccc([C@@H](C)OC[C@H](O)CNC(C)(C)CC2Cc3ccccc3C2)c1CCC(=O)O", "note": "[Example 4, 3-{2-[(1R)-1-{[(2R)-3-{[1-(2,3-Dihydro-1H-inden-2-yl)-2-methylpropan-2-yl]amino}-2-hydroxypropyl]oxy}ethyl]-6-methylphenyl}propanoic acid]", "values": [{"measurement": "Blood Serum PTH (1-84) Concentration, After 5 minutes", "setting": "[2]", "result": "68.2 ± 6.0", "unit": "pg/mL"}, {"measurement": "Blood Serum PTH (1-84) Concentration, After 15 minutes", "setting": "[2]", "result": "489.1 ± 106.0", "unit": "pg/mL"}, {"measurement": "Blood Serum PTH (1-84) Concentration, After 30 minutes", "setting": "[2]", "result": "538.6 ± 155.1", "unit": "pg/mL"}, {"measurement": "Blood Serum PTH (1-84) Concentration, After 60 minutes", "setting": "[2]", "result": "117.0 ± 33.7", "unit": "pg/mL"}, {"measurement": "Blood Serum PTH (1-84) Concentration, After 120 minutes", "setting": "[2]", "result": "108.8 ± 27.4", "unit": "pg/mL"}, {"measurement": "Blood Serum PTH (1-84) Concentration, After 240 minutes", "setting": "[2]", "result": "91.9 ± 24.5", "unit": "pg/mL"}, {"measurement": "Blood Serum PTH (1-84) Concentration, 0 minute", "setting": "[2]", "result": "20.5 ± 6.6", "unit": "pg/mL"}]}
